Measured values from PMC9579956 (RSC Medicinal Chemistry, 2022).
Several values for one entry are separate records, joined by “and”; a condition that tells them apart may be missing. Equal values may be shown once. Read-outs that look alike come from different tables or passages of the source.

How the values were obtained:
[1] = molecular target: T1, Mycobacterium thermoresistible (Mtr) LpqY (Mycolicibacterium thermoresistibile, UniProt G7CES0); assay type: binding; conditions: for Screen signal/noise ratio (MST S/N): compound 100 μM, LpqY 500 nM, 10% DMSO, duplicate; for Pathogen Box screen signal/noise ratio: single dose MST screen against LpqY
[2] = molecular target: T1, Mycobacterium thermoresistible (Mtr) LpqY; assay type: binding; conditions: for Hit validation Binding score: MST re-evaluation of hits against LpqY; for Validation binding score (MST): quadruplicate, new batch of LpqY
[3] = molecular target: T1, Mycobacterium thermoresistible (Mtr) LpqY; assay: Affinity studies with microscale thermophoresis (MST); assay type: binding; conditions: for Binding to LpqY (qualitative): Kd could not be determined
[4] = Solubility in aqueous buffer (observation in MST affinity assay); assay type: physicochemical
Description: The top five hits that were commercially available were selected for further characterisation and the binding affinities determined with LpqY (Fig. 4, Table S2 ^†).

T1 sequence (G7CES0 29-471): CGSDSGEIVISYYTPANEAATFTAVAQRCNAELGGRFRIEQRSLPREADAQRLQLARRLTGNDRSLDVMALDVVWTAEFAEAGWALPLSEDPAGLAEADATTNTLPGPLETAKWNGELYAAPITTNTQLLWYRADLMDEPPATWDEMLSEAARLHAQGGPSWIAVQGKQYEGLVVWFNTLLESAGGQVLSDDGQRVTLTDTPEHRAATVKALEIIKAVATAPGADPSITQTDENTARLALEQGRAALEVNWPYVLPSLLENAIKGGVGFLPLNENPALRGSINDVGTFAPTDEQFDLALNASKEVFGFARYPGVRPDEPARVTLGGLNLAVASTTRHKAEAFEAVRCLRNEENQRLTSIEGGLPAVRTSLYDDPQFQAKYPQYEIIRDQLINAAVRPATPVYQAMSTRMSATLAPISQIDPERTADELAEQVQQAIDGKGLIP

## C[C@H]1c2cccc(O)c2C(=O)C2=C(O)[C@]3(O)C(=O)C(C(N)=O)=C(O)[C@@H](N(C)C)[C@@H]3[C@@H](O)[C@@H]21 [MMV000011, Doxycycline, reference compound]
[1]
  Screen signal/noise ratio (MST S/N): 5.8
  Pathogen Box screen signal/noise ratio: 5.8
[2]
  Hit validation Binding score: 6.5
  Validation binding score (MST): 6.5
[2]; listed as doxycycline
  Validation binding score (MST): > 5

## COc1cc(NC(C)CCCN)c2ncccc2c1 (centres unmarked) [MMV000023, Primaquine, reference compound]
[3]; MST
  Binding to LpqY (qualitative): Concentration dependent binding
[1]
  Screen signal/noise ratio (MST S/N): 10.0
  Pathogen Box screen signal/noise ratio: 10.0
[2]
  Hit validation Binding score: 21.6
  Validation binding score (MST): 21.6

## COc1ccccc1C(C)NCC(=O)Nc1cc(C(F)(F)F)ccc1Cl (centres unmarked) [MMV020321, N-[2-chloro-5-(trifluoromethyl)phenyl]-2-[1-(2-methoxyphenyl)ethylamino]acetamide]
[1]
  Screen signal/noise ratio (MST S/N): 5.5
  Pathogen Box screen signal/noise ratio: 5.5
[2]
  Hit validation Binding score: 1.9
  Validation binding score (MST): 1.9

## O=C(Nc1cccc(Cl)c1)c1cnc(N2CCN(c3ccncc3)CC2)c(Cl)c1 [MMV024406, 5-chloro-N-(3-chlorophenyl)-6-(4-pyridin-4-ylpiperazin-1-yl)pyridine-3-carboxamide]
[1]
  Screen signal/noise ratio (MST S/N): 5.2
  Pathogen Box screen signal/noise ratio: 5.2
[2]
  Hit validation Binding score: 2.3
  Validation binding score (MST): 2.3

## CNC(=O)C1Cc2c([nH]c3cc(Cl)ccc23)C2(CCN(CCc3ccccc3)CC2)N1 (centres unmarked) [MMV031011, 7-chloro-N-methyl-1'-(2-phenylethyl)spiro[2,3,4,9-tetrahydropyrido[3,4-b]indole-1,4'-piperidine]-3-carboxamide]
[1]
  Screen signal/noise ratio (MST S/N): 5.7
  Pathogen Box screen signal/noise ratio: 5.7
[2]
  Hit validation Binding score: 3.7
  Validation binding score (MST): 3.7

## CCOC(=O)NC(=O)c1ccsc1NC(=O)c1nc2ccccc2s1 [MMV090930, TCA1, reference compound]
[3]
  Kd: 14.2 ± 0.8 µM
[3]; MST
  fold increase of affinity (Kd) compared to trehalose: ~2.5 fold
[1]
  Screen signal/noise ratio (MST S/N): 29.5
  Pathogen Box screen signal/noise ratio: 29.5
[2]
  Hit validation Binding score: 91.5
  Validation binding score (MST): > 5

## COc1ccc(OC(C)C(=O)Nc2ccc(Cl)cc2C)cc1 (centres unmarked) [MMV202458, N-(4-chloro-2-methylphenyl)-2-(4-methoxyphenoxy)propanamide]
[1]
  Screen signal/noise ratio (MST S/N): 5.5
  Pathogen Box screen signal/noise ratio: 5.5
[2]
  Hit validation Binding score: 6.3
  Validation binding score (MST): 6.3 and > 5

## COc1ccc(N(CCc2cccc(C)n2)C(=O)C2CCCCC2)cc1 [MMV675996, N-(4-methoxyphenyl)-N-[2-(6-methylpyridin-2-yl)ethyl]cyclohexanecarboxamide]
[1]
  Screen signal/noise ratio (MST S/N): 6.0
  Pathogen Box screen signal/noise ratio: 6.0
[2]
  Hit validation Binding score: 4.9
  Validation binding score (MST): 4.9

## COc1ccccc1OCCCCn1c(C2CC2)nc2ccccc21 [MMV676474, 2-cyclopropyl-1-[4-(2-methoxyphenoxy)butyl]benzimidazole]
[1]
  Screen signal/noise ratio (MST S/N): 6.0
  Pathogen Box screen signal/noise ratio: 6.0
[2]
  Hit validation Binding score: 6.2
  Validation binding score (MST): 6.2 and > 5

## Nc1cccnc1Nc1ccc(Cl)cc1 [MMV676524, 2-N-(4-chlorophenyl)pyridine-2,3-diamine]
[3]; MST
  Binding to LpqY (qualitative): Concentration dependent binding
[1]
  Screen signal/noise ratio (MST S/N): 6.4
  Pathogen Box screen signal/noise ratio: 6.4
[4]
  Solubility in aqueous buffer: poor solubility
[2]
  Hit validation Binding score: 12.2

## O=C(NCCc1c[nH]c2ccccc12)c1cc2ccccc2oc1=O [MMV676539, N-[2-(1H-indol-3-yl)ethyl]-2-oxochromene-3-carboxamide]
[1]
  Screen signal/noise ratio (MST S/N): 6.2
  Pathogen Box screen signal/noise ratio: 6.2
[2]
  Hit validation Binding score: 6.4
  Validation binding score (MST): 6.4 and > 5

## CNC(=O)c1nn(C)c2c1C(C)(C)Cc1cnc(Nc3ccc(N4CCN(C)CC4)cc3)nc1-2 [MMV676602, Milciclib, reference compound]
[3]; MST
  Binding to LpqY (qualitative): Concentration dependent binding
[1]
  Screen signal/noise ratio (MST S/N): 9.5
  Pathogen Box screen signal/noise ratio: 9.5
[4]
  Solubility in aqueous buffer: poor solubility
[2]
  Hit validation Binding score: 13.6
  Validation binding score (MST): > 12

## CC1(C)OB(O)c2ccc(C3=NOC(c4cc(Cl)c(F)c(Cl)c4)(C(F)(F)F)C3)cc21 (centres unmarked) [MMV687775, 5-(3,5-dichloro-4-fluorophenyl)-3-(1-hydroxy-3,3-dimethyl-2,1-benzoxaborol-5-yl)-5-(trifluoromethyl)-4H-1,2-oxazole]
[1]
  Screen signal/noise ratio (MST S/N): 6.6
  Pathogen Box screen signal/noise ratio: 6.6
[2]
  Hit validation Binding score: 3.9
  Validation binding score (MST): 3.9

## COc1cc(C2=NCCN2)cc2cc(-c3ccc(C4=NCCN4)cc3)oc12 [MMV688362, 2-[4-[5-(4,5-dihydro-1H-imidazol-2-yl)-7-methoxy-1-benzofuran-2-yl]phenyl]-4,5-dihydro-1H-imidazole]
[1]
  Screen signal/noise ratio (MST S/N): 12.6
  Pathogen Box screen signal/noise ratio: 12.6
[2]
  Hit validation Binding score: 14.8

## CS(=O)(=O)c1ccccc1C(=O)N(Cc1ccccc1)c1ccccc1 [MMV688798, N-benzyl-2-methylsulfonyl-N-phenylbenzamide]
[1]
  Screen signal/noise ratio (MST S/N): 5.2
  Pathogen Box screen signal/noise ratio: 5.2
[2]
  Hit validation Binding score: 1.3
  Validation binding score (MST): 1.3

## CC(=O)Oc1ccccc1C(=O)Nc1ncc([N+](=O)[O-])s1 [MMV688991, Nitazoxanide, reference compound]
[3]
  Kd: 85.4 µM
[3]; MST
  fold decrease in affinity compared to trehalose: ~2 fold
[1]
  Screen signal/noise ratio (MST S/N): 8.3
  Pathogen Box screen signal/noise ratio: 8.3
[2]
  Hit validation Binding score: 20.0
